Assay results reported in patent publication US4206215A, “Antimicrobial bis-[4-(substituted-amino)-1-pyridinium]alkanes” (Sterling Drug Inc., priority 1977, dated 1980).
Read-outs that look alike come from different tables or passages of the source.

What was measured:
S. Aureus Smith = experiment: In vitro antibacterial activity, MIC (modified Autotiter method); type: cell-based, Staphylococcus aureus; settings: 18-20 hours at 37° C.; for MIC: Staphylococcus aureus, 20 h, read-out: MIC S. Aureus Smith
Summary of the method: (§1)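 Inhibitory concentrations were established by automated serial twofold dilution of the test compound, starting at 1,000 mcg./ml. in solution, into sterile water, followed by inoculated semisynthetic medium (glucose, double strength); final concentrations tested: 500 to 0.06 mcg./ml.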

E. coli 100/B22 = experiment: as above; type: cell-based, Escherichia coli; settings: for MIC: Escherichia coli, 100/B22, 20 h, read-out: MIC E. coli 100/B22, 18-20 hours at 37° C.
Summary of the method: as §1

E. coli AB1932-1 = experiment: as above; type: cell-based, Escherichia coli; settings: 18-20 hours at 37° C.; for MIC: Escherichia coli, AB19321, 20 h, read-out: MIC E. coli AB1932-1
Summary of the method: as §1

E. coli Vogel = experiment: as above; type: cell-based, Escherichia coli; settings: 18-20 hours at 37° C.; for MIC: Escherichia coli, 20 h, read-out: MIC E. coli Vogel
Summary of the method: as §1

K. pneum. 39645 = experiment: as above; type: cell-based, Klebsiella pneumoniae; settings: 18-20 hours at 37° C.; for MIC: Klebsiella pneumoniae, 20 h, read-out: MIC K. pneum. 39645
Summary of the method: as §1

P. mirab. MGH-1 = experiment: as above; type: cell-based, Proteus mirabilis; settings: 18-20 hours at 37° C.; for MIC: Proteus mirabilis, 20 h, read-out: MIC P. mirab. MGH-1
Summary of the method: as §1

Ps. aerug. MGH-2 = experiment: as above; type: cell-based, Pseudomonas aeruginosa; settings: 18-20 hours at 37° C.; for MIC: Pseudomonas aeruginosa, 20 h, read-out: MIC Ps. aerug. MGH-2
Summary of the method: as §1

S. pyogen. C203 = experiment: as above; type: cell-based, Streptococcus pyogenes; settings: 18-20 hours at 37° C.; for MIC: Streptococcus pyogenes, 20 h, read-out: MIC S. pyogen. C203
Summary of the method: as §1

A. niger 16404 = experiment: In vitro antifungal activity, MIC (modified Autotiter method); type: cell-based, Aspergillus niger; settings: 18-20 hours at 37° C.; for MIC: Aspergillus niger, 16404, 20 h, read-out: MIC A. niger 16404
Summary of the method: as §1

C. albicans 10231 = experiment: as above; type: cell-based, Candida albicans; settings: 18-20 hours at 37° C.; for MIC: Candida albicans, 10231, 20 h, read-out: MIC C. albicans 10231
Summary of the method: as §1

C. albicans Wisc. = experiment: as above; type: cell-based, Candida albicans; settings: 18-20 hours at 37° C.; for MIC: Candida albicans, 20 h, read-out: MIC C. albicans Wisc.
Summary of the method: as §1

T. menta. 9129 = experiment: as above; type: cell-based, Trichophyton mentagrophytes; settings: 18-20 hours at 37° C.; for MIC: Trichophyton mentagrophytes, 20 h, read-out: MIC T. menta. 9129
Summary of the method: as §1

S. Aureus ATCC 6538 = experiment: Effect of serum on bacteriostatic activity (serial tube dilution test); type: cell-based, Staphyloccocus aureus; settings: for MIC: Staphylococcus aureus, ATCC6538
Method: (§2) Antibacterial effectiveness in the presence of serum was determined for representative examples by the standard serial tube dilution test wherein paired comparisons of minimum inhibitory concentrations (MIC) were determined in the absence and in the presence of heat inactivated (30 min. at 56° C.) horse serum (40%) in the test medium. The results are expressed as the fold increase in MIC (mcg./ml.) versus Staphyloccocus aureus and Escherichia coli caused by the presence of serum and are presented in Table B hereinbelow.

E. Coli ATCC 8739 = experiment: as above; type: cell-based, Escherichia coli; settings: for MIC: Escherichia coli, ATCC8739
Method: as §2

[1] = test system: Streptococcus mutans OMZ-61; experiment: Dental plaque-preventive effectiveness in the presence of sterile human saliva (50%); type: cell-based; settings: 50% sterile human saliva
Method: The dental plaque preventive activity of certain of the compounds of the present invention was determined by measuring the ability of these compounds to inhibit the production of dental plaque by Streptococcus mutans OMZ-61 as follows:
A culture medium for the plaque-producing Streptococcus mutans OMZ-61 containing 1.5 g. of BBL beef extract, 5 g. of sodium chloride, 10 g. of dehydrated trypticase, 5 g. of sucrose and sufficient distilled water to give a total volume of 1000 ml. is adjusted to pH 7.0 and sterilized by membrane filtration. The medium is dispensed aseptically in 10-ml. aliquots into 150×16 mm. test tubes and stored at refrigeration temperature until used.
Two concentrations of the compound to be tested are prepared by dissolving 100 mg. of the compound in 1 ml. of distilled water with the aid of sufficient 0.1 N sodium hydroxide, 10% dimethylsulfoxide or 10% N,N-dimethylformamide and diluting the resulting solution to 10 ml. with distilled water. This 1.0% solution and a 1:10 dilution in distilled water (0.1%) are sterilized by membrane filtration before use.
A sterile piece of plaque-free natural tooth enamel or synthetic hydroxylapatite is suspended in each concentration of compound for two 1-minute periods, each followed by a 1-minute air drying period. Each piece is then suspended and agitated for 5 minutes in individual test tubes containing sterile distilled water (rinse). They are then suspended in 10 ml. of liquid beef extract medium to which has been added 0.3 ml. of a 24-hr. anaerobic culture of Streptococcus mutans. The tubes containing the "treated" hydroxylapatite and the Streptococcus mutans are then incubated anaerobically at 37° C. for 24 hours. The same process of two 1-minute soaks in the solution of compound, each followed by 1 minute of air drying and the final 5-minute rinse is repeated before once again suspending the hydroxylapatite in a fresh tube containing 10 ml. of beef extract medium and 0.3 ml. of inoculum. At the end of the second 24-hour period, each piece of hydroxylapatite is rinsed for 1 minute in 3 successive tubes of distilled water. These are then suspended for 1 minute in a solution of F, D & C Red No. 3 dye. This staining procedure is used in order to identify more easily the development of plaque after the 48-hour period of exposure to the plaque-producing organism. The staining period is followed by another 10-second rinse to remove excess dye. Any plaque formation stains a brilliant pink. […] Active compounds are tested at successively lower doses in order to determine the minimum effective concentration. On some occasions, the interference of plaque production is caused by the inhibition of growth of the organism in the culture medium because the compound has been leached from the hydroxylapatite to produce an antibacterial level in the medium. When this occurs, the compound is tested at lower concentrations until the growth of the organism in the surrounding medium is equal to that in the nonmedicated control culture. Plaque may or may not be formed at these lower concentrations.
Dental plaque-preventive effectiveness in the presence of sterile human saliva (50%) was determined for representative examples.

[2] = test system: Herpes simplex type 2 virus; experiment: Virucidal activity in vitro (plaque inhibition test); type: cell-based; settings: 2 mg. of test compound on growth medium
Method: Virucidal activity of representative examples against Herpes simplex type 2 virus was determined in vitro employing a procedure similar to the plaque inhibition test for detection of specific inhibitors of DNA-containing viruses published by E. C. Herrmann, Jr., Proc. Soc. Exp. Biol. Med. 107, 142 (1961) wherein 2 mg. of the test compound was placed on the surface of the growth medium.

[3] = Acute oral toxicity (ALD50); type: in vivo; settings: mouse, in vivo, po, mice, read-out: 7-Day ALD50
Method: (§3) The acute oral toxicity (ALD50) of several representative examples was determined as follows: Groups of 3 young adult male Swiss-Webster strain albino mice were fasted approximately 4 hours before medication and then medicated once orally by stomach tube.

[4] = test system: young adult male Swiss-Webster strain albino mice; experiment: Acute oral toxicity (ALD50); type: in vivo
Method: as §3

[5] = suspension in 1% gum tragacanth
[6] = 25 mg/kg (so in the source) oral, suspension in 1% G.T.
[7] = 250 mg/kg oral, suspension in 1% G.T.
[8] = 500 mg/kg oral, suspension in 1% G.T.
[9] = 1000 mg/kg oral, suspension in 1% G.T.
[10] = 125 mg/kg oral, suspension in 1% G.T.
[11] = 125 mg/kg oral, aqueous solution
[12] = 250 mg/kg oral, aqueous solution
[13] = 500 mg/kg oral, aqueous solution
[14] = 1000 mg/kg oral, aqueous solution

Row | Compound | MIC A. niger 16404 (A. niger 16404) | Dental Plaque Preventive Activity in 50% saliva Minimum Effective Conc. (%) [1] | LD50 at 168 h [3, 5] | Mortality 7 Days [4, 7] | Mortality 24 Hrs [4, 7] | Mortality 7 Days [4, 8] | Mortality 24 Hrs [4, 8] | Mortality 7 Days [4, 9] | Mortality 24 Hrs [4, 9] | MIC (S. Aureus Smith) | MIC (E. coli 100/B22) | MIC (E. coli AB1932-1) | MIC (E. coli Vogel) | MIC (K. pneum. 39645) | MIC (P. mirab. MGH-1) | MIC (Ps. aerug. MGH-2) | MIC (S. pyogen. C203) | MIC (C. albicans 10231) | MIC (C. albicans Wisc.) | MIC (T. menta. 9129) | also measured
1 | CCCCCCCCNc1cc[n+](CCCCCCCCCC[n+]2ccc(NCCCCCCCC)cc2)cc1 [Example 9D, 1,10-bis-[4-(octylamino)-1-pyridinium]decane dibromide] | 1.95 µg/mL | Ca. 0.005% | > 1000 mg/kg | 0/3 | 0/3 | 0/3 | 0/3 | 0/3 | 0/3 |  |  |  |  |  |  |  |  |  |  |  | MIC S. Aureus Smith (S. Aureus Smith): 0.5 µg/mL; MIC E. coli 100/B22 (E. coli 100/B22; 18-20 hours at 37° C.): 1.95 µg/mL; MIC E. coli AB1932-1 (E. coli AB1932-1): 1.0 µg/mL; MIC E. coli Vogel (E. coli Vogel): 1.95 µg/mL; MIC K. pneum. 39645 (K. pneum. 39645): 3.9 µg/mL; MIC P. mirab. MGH-1 (P. mirab. MGH-1): 3.9 µg/mL; MIC Ps. aerug. MGH-2 (Ps. aerug. MGH-2): 3.9 µg/mL; MIC S. pyogen. C203 (S. pyogen. C203): 0.5 µg/mL; MIC C. albicans 10231 (C. albicans 10231): 1.0 µg/mL; MIC C. albicans Wisc. (C. albicans Wisc.): 1.0 µg/mL; MIC T. menta. 9129 (T. menta. 9129): 1.0 µg/mL; Fold Increase in MIC S. Aureus ATCC 6538 (S. Aureus ATCC 6538; 40% vs 0% horse serum): 16 fold; MIC (S. Aureus ATCC 6538; 40% heat inactivated horse serum, read-out: MIC S. Aureus ATCC 6538 40% Serum): 7.8 µg/mL; MIC (S. Aureus ATCC 6538; read-out: MIC S. Aureus ATCC 6538 0% Serum): 0.5 µg/mL; Fold Increase in MIC E. Coli ATCC 8739 (E. Coli ATCC 8739; 40% vs 0% horse serum): 64 fold; MIC (E. Coli ATCC 8739; 40% heat inactivated horse serum, read-out: MIC E. Coli ATCC 8739 40% Serum): 62.5 µg/mL; MIC (E. Coli ATCC 8739; read-out: MIC E. Coli ATCC 8739 0% Serum): 1 µg/mL; Virucidal activity against Herpes simplex type 2 virus [2]: active; Mortality 7 Days [4, 6]: 0/3; Mortality 24 Hrs [4, 6]: 0/3
2 | CCCCCCCCNc1cc[n+](CCCCCCCCC[n+]2ccc(NCCCCCCCC)cc2)cc1 [Example 44A, 1,9-bis-[4-(octylamino)-1-pyridinium]nonane dibromide] |  | 0.005% | > 1000 mg/kg | 0/3 | 0/3 | 0/3 | 0/3 | 0/3 | 0/3 | 1 µg/mL | 1 µg/mL | 1 µg/mL | 1 µg/mL | 1.95 µg/mL | 15.6 µg/mL | 3.9 µg/mL | 0.5 µg/mL | 1 µg/mL | 1.95 µg/mL | 1 µg/mL | MIC (A. niger 16404): 3.9 µg/mL; Mortality 7 Days [4, 10]: 0/3; Mortality 24 Hrs [4, 10]: 0/3
3 | CCCCC(CC)CNc1cc[n+](CCCCCCCC[n+]2ccc(NCC(CC)CCCC)cc2)cc1 (stereo not drawn) [Example 56, 1,8-bis-[4-(2-ethylhexylamino)-1-pyridinium]octane dibromide] |  | 0.1% | > 1000 mg/kg | 0/3 | 0/3 | 0/3 | 0/3 | 1/3 | 1/3 | 0.31 µg/mL | 1.95 µg/mL | 0.98 µg/mL | 3.9 µg/mL | 7.8 µg/mL | 125 µg/mL | 125 µg/mL | 0.16 µg/mL | 3.9 µg/mL | 3.9 µg/mL | 1.95 µg/mL | MIC (A. niger 16404): 15.6 µg/mL; Virucidal activity against Herpes simplex type 2 virus [2]: active; Mortality 7 Days [4, 10]: 0/3; Mortality 24 Hrs [4, 10]: 0/3
4 | CCCCCCCCNc1cc[n+](CCCCCCCCCC[n+]2ccc(NCCCCCCCC)cc2)cc1 [10A,B, 1,10-bis-[4-(octylamino)-1-pyridinium]decane dichloride] | 7.8 µg/mL |  |  |  |  |  |  |  |  | 0.5 µg/mL | 1 µg/mL | 1 µg/mL | 1.95 µg/mL | 1.95 µg/mL | 3.9 µg/mL | 3.9 µg/mL | 1 µg/mL | 1.95 µg/mL | 1.95 µg/mL | 1.95 µg/mL | Dental Plaque Preventive Activity in 50% saliva Minimum Effective Conc. (%) ([1]; listed as 10 A, B): 0.005%; LD50 at 168 h ([3]; aqueous solution): > 1000 mg/kg; Mortality 7 Days [4, 11]: 0/3; Mortality 24 Hrs [4, 11]: 0/3; Mortality 7 Days [4, 12]: 0/3; Mortality 24 Hrs [4, 12]: 0/3; Mortality 7 Days [4, 13]: 0/3; Mortality 24 Hrs [4, 13]: 0/3; Mortality 7 Days [4, 14]: 0/3; Mortality 24 Hrs [4, 14]: 0/3
